{"source": "patent US10240124B2", "about": "“Cell culture substrate comprising a laminin and a cadherin” (BioLamina AB, priority 2011, dated 2019)", "molecules": {"B1": {"name": "E-Cadherin: epithelial-cadherin, most abundant cadherin isoform on the human ES cell surface; coating protein (protein, UniProt P12830 155-882, looked up)", "Cadherin-1": "DWVIPPISCPENEKGPFPKNLVQIKSNKDKEGKVFYSITGQGADTPPVGVFIIERETGWLKVTEPLDRERIATYTLFSHAVSSNGNAVEDPMEILITVTDQNDNKPEFTQEVFKGSVMEGALPGTSVMEVTATDADDDVNTYNAAIAYTILSQDPELPDKNMFTINRNTGVISVVTTGLDRESFPTYTLVVQAADLQGEGLSTTATAVITVTDTNDNPPIFNPTTYKGQVPENEANVVITTLKVTDADAPNTPAWEAVYTILNDDGGQFVVTTNPVNNDGILKTAKGLDFEAKQQYILHVAVTNVVPFEVSLTTSTATVTVDVLDVNEAPIFVPPEKRVEVSEDFGVGQEITSYTAQEPDTFMEQKITYRIWRDTANWLEINPDTGAISTRAELDREDFEHVKNSTYTALIIATDNGSPVATGTGTLLLILSDVNDNAPIPEPRTIFFCERNPKPQVINIIDADLPPNTSPFTAELTHGASANWTIQYNDPTQESIILKPKMALEVGDYKINLKLMDNQNKDQVTTLEVSVCDCEGAAGVCRKAQPVEAGLQIPAILGILGGILALLILILLLLLFLRRRAVVKEPLLPPEDDTRDNVYYYDEEGGGEEDQDFDLSQLHRGLDARPEVTRNDVAPTLMSVPRYLPRPANPDEIGNFIDENLKAADTDPTAPPYDSLLVFDYEGSGSEAASLSSLNSSESDKDQDYDYLNEWGNRFKKLADMYGGGEDD"}}, "key": {"hES cells on LN-521": {"tested_on": "hES cells on LN-521", "assay": "Inhibition of survival assay on LN-521", "type": "cell-based, human", "settings": "medium contained bFGF, FIG. 16", "source_text": "InSolution™ LY 294002 (a specific Akt inhibitor), InSolution™ Wortmannin (a specific PI3K inhibitor), and InSolution™ 98059 (a specific MEK1/Erk inhibitor) were purchased from Calbiochem. Antibodies to phospho-Akt (#4060), total-Akt (#9272), phospho-Erk (#9101), and total-Erk (#9102) were obtained from Cell Signaling Technology. PathScan Phospho-Akt1 sandwich ELISA kit (#7160), PathScan total Akt1 sandwich ELISA kit (#7170), PathScan Phospho-Akt2 sandwich ELISA kit (#7048), and PathScan total Akt2 sandwich ELISA kit (#7046) were also purchased from Cell Signaling Technology. Antibodies to Calnexin (#ab10286) were obtained from Abcam. Function blocking antibodies to various integrin subunits, mouse isotype antibodies, and α-dystroglycan were purchased from Millipore. Since function blocking antibodies to αV (MAB1980) and α6 (MAB1378) were presented in a solution with sodium azide, before the inhibition of survival experiment all the antibodies to alpha integrin subunits were dialyzed thrice against O3 medium for 2 hours each time. Antibodies to Lutheran receptor and α-fetoprotein, as well as rat isotype control antibodies were obtained from R&D Systems. Antibodies to Oct4, Nanog, SSEA-4, smooth muscle actin and MAP-2 were purchased from Millipore. […]"}, "hES cells [1]": {"tested_on": "hES cells", "assay": "Cell survival assay, 24 hours (Example 2)", "type": "cell-based, human", "settings": "for survival of hES cells 24 hours after plating from single cell suspension: O3 medium, absence of ROCK inhibitor; for survival of dissociated hES cells after 24 hours: quantified survival assay", "protocol": "(§1) Briefly, 96-well plates were coated by extracellular matrix proteins as described above and blocked by O3 medium containing bovine serum albumin. The ES cells were plated at cell density of 50,000 cells/cm^2 onto extracellular matrix-coated plates and left to adhere for 1 hour in a cell incubator. After that the plates were washed 3 times with the medium to remove the non-adherent cells, and then the adherent cells were fixed for 20 minutes by 5% glutaraldehyde, stained by 0.1% Crystal Violet. (Kebo Lab, Spanga, Sweden, http://www.kebolab.se). After one hour and 3 washes with water, Crystal Violet was extracted with 10% acetic acid and quantified by measuring optical density at 570 nm. All the experiments were performed in quadruplicate.\nThe survival assay was performed as described for the cell adhesion assay above, except that the cells were left in the cell incubator for 24 hours. For inhibition of survival assay, the cells were kept in a medium with function blocking antibodies at the concentrations recommended by the manufacturer or pathway inhibitors at concentrations indicated in the text for 30 minutes, and then plated on the coated dishes. All the experiments were performed in quadruplicate.\nPluripotent hES cells express α1, α5, β1, β2 and γ1 laminin chains. To compare the adhesion and clonal survival of hES cells plated from single cell suspension to different coating substrata, hES cells growing as monolayers on LN-511 or as clusters on a feeder layer were trypsinized into single cell suspension in O3 medium and plated on cell culture dishes coated with Matrigel, LN-111, LN-511, LN-521 or a mixture of LN-511 and LN-521, in the absence or presence of a ROCK inhibitor (Y-27632) and analyzed after 24 hours."}, "human ES cells (HS181)": {"tested_on": "human ES cells (HS181)", "assay": "Cell adhesion assay, Crystal Violet (Example 1)", "type": "cell-based", "settings": "for cells remaining attached / surviving 24 hours after plating: HS181 completely dissociated, FIG. 4", "protocol": "Ninety-six-well tissue cell culture plates were coated overnight at 4° C. with sterile solutions of the ECM proteins mouse LN-111 (Invitrogen), human recombinant LN-511, and human recombinant LN-521, all at a concentration of 30 μg/ml (5 μg/cm^2). For control cells, BD Matrigel™ hESC qualified (BD Biosciences) was used according to the manufacturer's instructions.\nThe assay was performed as described (Extracellular Matrix Protocols, 2000). Briefly, 96-well plates were coated by extracellular matrix proteins as described above and blocked by O3 medium containing bovine serum albumin. The ES cells were plated at a cell density of 600 cell/mm^2 upon extracellular matrix-coated plates and were left to adhere for either 1 hour or 1 day at the cell incubator. Non-adherent cells were washed away, and adherent cells were fixed for 20 min by 5% glutaraldehyde, stained by 0.1% Crystal Violet."}, "[2]": {"tested_on": "human embryonic stem cells", "assay": "Survival of hES cells plated in single cell suspension on precoated dishes (description)", "type": "cell-based", "settings": "O3 medium, 30 Kcells/cm^2", "source_text": "In other aspects, the present disclosure provides a new material, isolated laminin-521, which permits human embryonic stem cell survival after dissociation into single cell suspension. The stem cells were dissociated into single cell suspension by Trypsin-EDTA treatment, pelleted by centrifugation, resuspended into O3 medium, filtered through a 40 μm sieve, and plated at a density of 30 Kcells/cm^2 on cell culture dishes precoated by either isolated laminin-521, laminin-511, or Matrigel. After one day in culture, the cells plated on Matrigel died, as is known in the art."}, "Human ES cells": {"tested_on": "Human ES cells", "settings": "over 3 months; engraftment into SCID mice; cited from earlier work"}, "myosin light chain (MLC)": {"tested_on": "myosin light chain (MLC)", "assay": "Western blot of phosphorylated myosin light chain", "type": "cell-based, human", "settings": "one and six hours after plating, FIG. 12 and 13", "protocol": "HS 181 cells were trypsinized into single cell suspension as described above. For inhibition experiments, the cells were kept in O3 medium with blocking antibodies or pathway inhibitors for 30 minutes and then 450K cells were plated on 35 mm dishes precoated with the appropriate matrix coating. For other experiments, same number of cells was plated directly after trypsinization. […] After two washings in ice-cold PBS, the plates with cells were snap frozen in liquid nitrogen and stored at −80° C. To prepare samples for western blots and ELISA, the plates were slowly thawed and kept on ice with 100-150 μl of lysis buffer (50 mM Tris-HCl, pH7.5, 150 mM NaCl, 0.5% deoxycholate, 0.5% SDS, 1% Triton X-100, 1% Igepal, Complete™ (Roche) and Phospho-Stop™ (Roche)) on top. Then, the cells were scraped, pipetted and sheared through a 27 G ¾″ needle. After that, the cell pellets were clarified by centrifugation at 16,100 rcf for 15 minutes at 4° C. For western blots, 4-12% gradient gels were used for SDS electrophoresis and the proteins were transferred to PVDF membranes. The membrane was hybridized with the antibody of interest according to the manufacturer's instructions. […] For the densitometry analysis the films were scanned at 2,400 dpi and analyzed by the Chemilmager5500 program (1 D-Multi Line densitometry mode). […]"}, "Integrin α6β1": {"target": "Integrin α6β1 (Homo sapiens, UniProt P05556+P23229)", "sequence (P23229 24-1130)": "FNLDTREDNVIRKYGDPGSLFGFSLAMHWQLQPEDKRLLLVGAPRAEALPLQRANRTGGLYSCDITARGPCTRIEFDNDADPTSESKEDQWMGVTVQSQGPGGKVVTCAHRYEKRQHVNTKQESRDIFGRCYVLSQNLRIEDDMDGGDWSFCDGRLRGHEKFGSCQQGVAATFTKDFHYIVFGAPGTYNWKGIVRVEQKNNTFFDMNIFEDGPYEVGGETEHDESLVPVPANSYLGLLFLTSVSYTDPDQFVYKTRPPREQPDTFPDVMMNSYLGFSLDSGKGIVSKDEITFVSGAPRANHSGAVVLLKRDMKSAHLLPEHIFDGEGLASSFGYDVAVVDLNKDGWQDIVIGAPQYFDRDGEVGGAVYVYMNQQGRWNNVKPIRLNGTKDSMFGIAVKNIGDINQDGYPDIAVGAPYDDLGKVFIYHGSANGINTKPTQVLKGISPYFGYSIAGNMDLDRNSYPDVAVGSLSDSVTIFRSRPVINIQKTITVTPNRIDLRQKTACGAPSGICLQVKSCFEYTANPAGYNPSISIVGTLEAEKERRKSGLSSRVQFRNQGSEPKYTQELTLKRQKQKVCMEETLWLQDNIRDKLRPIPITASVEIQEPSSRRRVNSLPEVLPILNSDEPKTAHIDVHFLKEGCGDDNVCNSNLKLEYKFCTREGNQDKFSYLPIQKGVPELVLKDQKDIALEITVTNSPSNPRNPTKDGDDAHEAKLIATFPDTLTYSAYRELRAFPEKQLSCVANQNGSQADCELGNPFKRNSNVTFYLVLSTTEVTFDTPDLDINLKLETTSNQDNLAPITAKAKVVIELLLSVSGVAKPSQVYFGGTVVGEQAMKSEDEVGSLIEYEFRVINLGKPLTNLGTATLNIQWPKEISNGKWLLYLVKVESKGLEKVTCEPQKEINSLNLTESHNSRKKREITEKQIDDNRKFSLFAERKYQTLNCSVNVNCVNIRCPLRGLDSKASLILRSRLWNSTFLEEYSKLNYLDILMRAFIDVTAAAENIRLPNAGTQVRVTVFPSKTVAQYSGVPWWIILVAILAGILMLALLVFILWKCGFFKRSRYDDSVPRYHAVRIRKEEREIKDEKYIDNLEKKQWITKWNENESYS", "sequence (P05556 21-798)": "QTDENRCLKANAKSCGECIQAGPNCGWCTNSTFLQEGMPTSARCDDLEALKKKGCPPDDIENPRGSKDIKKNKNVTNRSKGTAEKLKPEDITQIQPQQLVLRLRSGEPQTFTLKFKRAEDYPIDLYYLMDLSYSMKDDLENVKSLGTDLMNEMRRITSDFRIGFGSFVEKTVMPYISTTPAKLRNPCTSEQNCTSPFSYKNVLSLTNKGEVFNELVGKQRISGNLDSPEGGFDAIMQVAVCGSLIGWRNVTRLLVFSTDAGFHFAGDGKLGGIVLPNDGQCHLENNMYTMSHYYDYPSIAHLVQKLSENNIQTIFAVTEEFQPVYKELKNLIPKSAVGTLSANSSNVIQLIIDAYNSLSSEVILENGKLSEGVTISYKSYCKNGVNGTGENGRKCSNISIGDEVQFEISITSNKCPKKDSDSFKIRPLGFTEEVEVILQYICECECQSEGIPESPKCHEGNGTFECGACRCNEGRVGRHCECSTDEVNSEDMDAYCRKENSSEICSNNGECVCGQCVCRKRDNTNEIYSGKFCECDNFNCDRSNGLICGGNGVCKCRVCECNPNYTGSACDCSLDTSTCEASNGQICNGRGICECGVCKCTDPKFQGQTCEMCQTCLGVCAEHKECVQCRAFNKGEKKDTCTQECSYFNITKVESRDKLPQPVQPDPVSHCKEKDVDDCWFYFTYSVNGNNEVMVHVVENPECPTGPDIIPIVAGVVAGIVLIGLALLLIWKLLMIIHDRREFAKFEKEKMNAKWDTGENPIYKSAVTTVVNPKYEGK", "settings": "cited from earlier work"}, "hES cells [3]": {"tested_on": "hES cells", "assay": "Cell adhesion assay, 1 hour (Example 2)", "type": "cell-based, human", "settings": "compared with Matrigel or LN-111, not shown", "protocol": "Tissue cell culture plates were coated overnight at 4° C. with sterile solutions of the ECM proteins, such as human recombinant LN-521, all at a concentration of 30 μg/ml (5 μg/cm^2). Control plates were coated with Matrigel according to the STEMCELL Technologies' instructions. Prior to use, dishes were pre-warmed in an incubator for one hour after which prewarmed O3 medium was added without additional washing of the dish. After applying a fresh LN-521 solution to a new dish, the remaining LN-521 solution could be used at least once more. All the adhesion, survival, and inhibition of survival experiments were carried out using fresh coating materials.\nas §1"}, "hES cells [4]": {"tested_on": "hES cells", "assay": "Clonal survival of individualized hES cells, alkaline phosphatase staining (Example 4)", "type": "cell-based, human", "protocol": "hES cells were plated in mTeSR1 medium on different coatings at a density of 250 cells per cm^2 and monitored after 5 days in culture using an alkaline phosphatase staining kit.\nNext, combinations of laminin-521 and E-Cadherin were tested to determine whether the combinations could sustain clonal survival of the cells. Fixed amounts of laminin-521 were used for the cell culture dish coating in combination with titrated E-Cadherin.\nAdditional tests were performed to test the effects of various modifications to the mTeSR1 medium. A mixture of E-Cadherin to laminin-521 in a ratio of about 1:10 w/w was used to coat the plates. […] Time-lapse photography of the cells confirmed that laminin-521/E-Cadherin coatings facilitated cell survival through proliferation of the single cells, not through the aggregation of different cells."}, "[5]": {"settings": "O3 medium without any additives"}}, "data": [{"molecule": "COc1cccc(-c2cc(=O)c3ccccc3o2)c1N", "note": "[PD 98059]", "values": [{"measurement": "hES cell survival 24 hours after plating on LN-521 with pathway inhibitor", "setting": "hES cells on LN-521", "result": "did not affect the survival that severely"}]}, {"molecule": "C[C@@H](N)[C@H]1CC[C@H](C(=O)Nc2ccncc2)CC1", "note": "[Y-27632, reference compound]", "values": [{"measurement": "survival of hES cells 24 hours after plating in the presence of ROCK inhibitor", "setting": "hES cells [1]; Y-27632, all coatings", "result": "survived on all surfaces"}, {"measurement": "cells remaining attached after one day with ROCK inhibitor", "setting": "human ES cells (HS181); O3 medium treated with Y-27632, five coatings, FIG. 5", "result": "remained attached on all 5 coatings"}]}, {"molecule": "LN-111: mouse laminin-111 (Invitrogen), indicated as LN-111 if not otherwise stated", "values": [{"measurement": "survival of hES cells 24 hours after plating from single cell suspension", "setting": "hES cells [1]", "result": "did not survive"}, {"measurement": "survival of dissociated hES cells after 24 hours", "setting": "hES cells [1]", "result": "almost no cells had survived"}, {"measurement": "cells remaining attached / surviving 24 hours after plating", "setting": "human ES cells (HS181); [5]", "result": "almost no cells remained attached"}]}, {"molecule": "LN-121: human recombinant laminin of α1, β2 and γ1 chains from triple-transfected HEK293 cells", "values": [{"measurement": "survival of hES cells 24 hours after plating from single cell suspension", "setting": "hES cells [1]", "result": "failed to survive"}]}, {"molecule": "LN-511: human recombinant laminin-511, control coating", "values": [{"measurement": "survival of human embryonic stem cells after one day in culture", "setting": "[2]", "result": "in most cases on laminin-511 survived"}, {"measurement": "survival of hES cells 24 hours after plating from single cell suspension", "setting": "hES cells [1]", "result": "did so as single cells"}, {"measurement": "survival of dissociated hES cells after 24 hours", "setting": "hES cells [1]", "result": "very few"}, {"measurement": "pluripotency of human ES cells in long-term culture", "setting": "Human ES cells", "result": "maintain pluripotency and can generate teratomas"}, {"measurement": "phosphorylation of MLC compared with cells on Matrigel and LN-111", "setting": "myosin light chain (MLC)", "result": "even higher"}, {"measurement": "binding affinity of integrin α6β1 compared with LN-111", "setting": "Integrin α6β1", "result": "higher than that for LN-111"}, {"measurement": "spreading of the cells after one hour", "setting": "hES cells [3]", "result": "clearly better"}, {"measurement": "cells remaining attached / surviving 24 hours after plating", "setting": "human ES cells (HS181); [5]", "result": "at a less extent"}, {"measurement": "adhesion of human ES cells at 1 hour", "setting": "human ES cells (HS181); O3 medium without any additives, without Y-27632, FIG. 6", "result": "roughly the same"}]}, {"molecule": "albumin: albumin of the mTeSR1 medium, concentration increased 2×", "values": [{"measurement": "effect of 2× increase in albumin concentration on clonal survival", "setting": "hES cells [4]; laminin-521/E-Cadherin matrix, mTeSR1", "result": "significantly improved clonal survival"}]}, {"molecule": "human recombinant LN-111: human recombinant laminin of α1, β1 and γ1 chains from triple-transfected HEK293 cells", "values": [{"measurement": "survival of hES cells 24 hours after plating from single cell suspension", "setting": "hES cells [1]", "result": "failed to survive"}]}, {"molecule": "B1", "values": [{"measurement": "clonal survival of individualized hES cells", "setting": "hES cells [4]; mTeSR1, 250 cells per cm^2, 5 days", "result": "Neither laminin-521 nor E-Cadherin alone permitted efficient clonal survival"}]}]}
